Experimental findings from publication PMC7132332 (Biochemistry, 2020) are described below.

This test has as its target T1, WecA (Escherichia coli, UniProt P0AC78).
T1 sequence (P0AC78 1-367): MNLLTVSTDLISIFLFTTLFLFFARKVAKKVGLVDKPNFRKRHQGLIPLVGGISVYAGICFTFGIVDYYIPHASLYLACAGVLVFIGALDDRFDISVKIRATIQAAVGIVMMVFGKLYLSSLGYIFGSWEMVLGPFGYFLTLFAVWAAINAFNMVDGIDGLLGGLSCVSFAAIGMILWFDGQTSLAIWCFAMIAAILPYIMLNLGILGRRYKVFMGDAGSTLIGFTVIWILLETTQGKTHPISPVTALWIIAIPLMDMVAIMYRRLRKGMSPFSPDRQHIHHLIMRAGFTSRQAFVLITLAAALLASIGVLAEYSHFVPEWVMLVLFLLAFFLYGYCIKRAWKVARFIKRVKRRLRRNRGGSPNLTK
Put plainly: HPLC transferase assay with cell envelope fraction. The test is classed as biochemical. To be noted: 2CN- or NBD-B(4Z)P; overexpressed recombinant WecA; bicine pH 8.5, MgCl2, cholate, 37 °C.

Molecules are shown by their SMILES.

Turning to `CC(=O)N[C@H]1[C@@H](OP(=O)(O)OP(=O)(O)OC[C@H]2O[C@@H](n3ccc(=O)[nH]c3=O)[C@H](O)[C@@H]2O)O[C@H](CO)[C@@H](O)[C@@H]1O` [UDP-GlcNAc], the “HPLC transferase assay with cell envelope fraction” value was “able to convert fl-BPs with far lower concentrations of UDP-GlcNAc”.
